Assay: Three-treatment crossover pharmacokinetics of IN nalmefene, three dosing regimens (Example 13)
Conditions: human, plasma, […]

C=C1CC[C@@]2(O)[C@H]3Cc4ccc(O)c5c4[C@@]2(CCN3CC2CC2)[C@H]1O5 [Nalmefene, 17-cyclopropylmethyl-4,5α-epoxy-6-methylenemorphinan-3,14-diol]
concentration at 0 h (other: intranasal (IN spray), 6 mg, Mean, Time 0.00, T3: 6 mg nalmefene HCl IN, two 0.1 mL sprays in one nostril): 0 ng/mL | concentration at 2.5 min (other: intranasal (IN spray), 6 mg, Mean, Time 0.0416, T3: 6 mg nalmefene HCl IN, two 0.1 mL sprays in one nostril): 1.35 ng/mL | concentration at […] (other: intranasal (IN spray), 6 mg, Mean, Time 0.0833, T3: 6 mg nalmefene HCl IN, two 0.1 mL sprays in one nostril): 5.05 ng/mL | concentration at […] (other: intranasal (IN spray), 6 mg, Mean, Time 0.166, T3: 6 mg nalmefene HCl IN, two 0.1 mL sprays in one nostril): 14.1 ng/mL | concentration at […] (other: intranasal (IN spray), 6 mg, Mean, Time 0.250, T3: 6 mg nalmefene HCl IN, two 0.1 mL sprays in one nostril): 16.9 ng/mL | concentration at […] (other: intranasal (IN spray), 6 mg, Mean, Time 0.333, T3: 6 mg nalmefene HCl IN, two 0.1 mL sprays in one nostril): 14.6 ng/mL | concentration at […] (other: intranasal (IN spray), 6 mg, Mean, Time 0.750, T3: 6 mg nalmefene HCl IN, two 0.1 mL sprays in one nostril): 9.92 ng/mL | concentration at 1 h (other: intranasal (IN spray), 6 mg, Mean, Time 1.00, T3: 6 mg nalmefene HCl IN, two 0.1 mL sprays in one nostril): 9.59 ng/mL | concentration at 2 h (other: intranasal (IN spray), 6 mg, Mean, Time 2.00, T3: 6 mg nalmefene HCl IN, two 0.1 mL sprays in one nostril): 8.86 ng/mL | concentration at 3 h (other: intranasal (IN spray), 6 mg, Mean, Time 3.00, T3: 6 mg nalmefene HCl IN, two 0.1 mL sprays in one nostril): 6.9 ng/mL | concentration at 4 h (other: intranasal (IN spray), 6 mg, Mean, Time 4.00, T3: 6 mg nalmefene HCl IN, two 0.1 mL sprays in one nostril): 5.37 ng/mL | concentration at 6 h (other: intranasal (IN spray), 6 mg, Mean, Time 6.00, T3: 6 mg nalmefene HCl IN, two 0.1 mL sprays in one nostril): 3.69 ng/mL | concentration at 8 h (other: intranasal (IN spray), 6 mg, Mean, Time 8.00, T3: 6 mg nalmefene HCl IN, two 0.1 mL sprays in one nostril): 2.69 ng/mL | concentration at 12 h (other: intranasal (IN spray), 6 mg, Mean, Time 12.0, T3: 6 mg nalmefene HCl IN, two 0.1 mL sprays in one nostril): 1.93 ng/mL | concentration at 18 h (other: intranasal (IN spray), 6 mg, Mean, Time 18.0, T3: 6 mg nalmefene HCl IN, two 0.1 mL sprays in one nostril): 1.11 ng/mL | concentration at 24 h (other: intranasal (IN spray), 6 mg, Mean, Time 24.0, T3: 6 mg nalmefene HCl IN, two 0.1 mL sprays in one nostril): 0.792 ng/mL | concentration at 48 h (other: intranasal (IN spray), 6 mg, Mean, Time 48.0, T3: 6 mg nalmefene HCl IN, two 0.1 mL sprays in one nostril): 0.182 ng/mL | concentration at 0 h (other: intranasal (IN spray), 6 mg, Median, Time 0.00, T3: 6 mg nalmefene HCl IN, two 0.1 mL sprays in one nostril): 0 ng/mL | concentration at 2.5 min (other: intranasal (IN spray), 6 mg, Median, Time 0.0416, T3: 6 mg nalmefene HCl IN, two 0.1 mL sprays in one nostril): 0.746 ng/mL | concentration at […] (other: intranasal (IN spray), 6 mg, Median, Time 0.0833, T3: 6 mg nalmefene HCl IN, two 0.1 mL sprays in one nostril): 2.58 ng/mL | concentration at […] (other: intranasal (IN spray), 6 mg, Median, Time 0.125, T3: 6 mg nalmefene HCl IN, two 0.1 mL sprays in one nostril): 4.96 ng/mL | concentration at […] (other: intranasal (IN spray), 6 mg, Median, Time 0.166, T3: 6 mg nalmefene HCl IN, two 0.1 mL sprays in one nostril): 8.55 ng/mL | concentration at […] (other: intranasal (IN spray), 6 mg, Median, Time 0.250, T3: 6 mg nalmefene HCl IN, two 0.1 mL sprays in one nostril): 12.8 ng/mL | concentration at […] (other: intranasal (IN spray), 6 mg, Median, Time 0.750, T3: 6 mg nalmefene HCl IN, two 0.1 mL sprays in one nostril): 9.69 ng/mL | concentration at 1 h (other: intranasal (IN spray), 6 mg, Median, Time 1.00, T3: 6 mg nalmefene HCl IN, two 0.1 mL sprays in one nostril): 8.88 ng/mL | concentration at 2 h (other: intranasal (IN spray), 6 mg, Median, Time 2.00, T3: 6 mg nalmefene HCl IN, two 0.1 mL sprays in one nostril): 8.6 ng/mL | concentration at 3 h (other: intranasal (IN spray), 6 mg, Median, Time 3.00, T3: 6 mg nalmefene HCl IN, two 0.1 mL sprays in one nostril): 6.35 ng/mL | concentration at 4 h (other: intranasal (IN spray), 6 mg, Median, Time 4.00, T3: 6 mg nalmefene HCl IN, two 0.1 mL sprays in one nostril): 4.89 ng/mL | concentration at 6 h (other: intranasal (IN spray), 6 mg, Median, Time 6.00, T3: 6 mg nalmefene HCl IN, two 0.1 mL sprays in one nostril): 3.51 ng/mL | concentration at 8 h (other: intranasal (IN spray), 6 mg, Median, Time 8.00, T3: 6 mg nalmefene HCl IN, two 0.1 mL sprays in one nostril): 2.46 ng/mL | concentration at 12 h (other: intranasal (IN spray), 6 mg, Median, Time 12.0, T3: 6 mg nalmefene HCl IN, two 0.1 mL sprays in one nostril): 1.82 ng/mL | concentration at 18 h (other: intranasal (IN spray), 6 mg, Median, Time 18.0, T3: 6 mg nalmefene HCl IN, two 0.1 mL sprays in one nostril): 1.12 ng/mL | concentration at 24 h (other: intranasal (IN spray), 6 mg, Median, Time 24.0, T3: 6 mg nalmefene HCl IN, two 0.1 mL sprays in one nostril): 0.729 ng/mL | concentration at 48 h (other: intranasal (IN spray), 6 mg, Median, Time 48.0, T3: 6 mg nalmefene HCl IN, two 0.1 mL sprays in one nostril): 0.176 ng/mL | concentration at 0 h (other: intranasal (IN) spray, 3 mg, Max, T1 (3 mg IN, one spray in one nostril), time 0.00): 0 ng/mL | concentration at 2.5 min (other: intranasal (IN) spray, 3 mg, Max, T1 (3 mg IN, one spray in one nostril), time 0.0416): 0.766 ng/mL | concentration at […] (other: intranasal (IN) spray, 3 mg, Max, T1 (3 mg IN, one spray in one nostril), time 0.125): 16.9 ng/mL | concentration at […] (other: intranasal (IN) spray, 3 mg, Max, T1 (3 mg IN, one spray in one nostril), time 0.166): 20.4 ng/mL | concentration at […] (other: intranasal (IN) spray, 3 mg, Max, T1 (3 mg IN, one spray in one nostril), time 0.250): 22.1 ng/mL | concentration at […] (other: intranasal (IN) spray, 3 mg, Max, T1 (3 mg IN, one spray in one nostril), time 0.333): 20.2 ng/mL | concentration at 1 h (other: intranasal (IN) spray, 3 mg, Max, T1 (3 mg IN, one spray in one nostril), time 1.00): 9.54 ng/mL | concentration at 2 h (other: intranasal (IN) spray, 3 mg, Max, T1 (3 mg IN, one spray in one nostril), time 2.00): 7.64 ng/mL | concentration at 3 h (other: intranasal (IN) spray, 3 mg, Mean, T1 (3 mg IN, one spray in one nostril), time 3.00): 3.7 ng/mL | concentration at 4 h (other: intranasal (IN) spray, 3 mg, Mean, T1 (3 mg IN, one spray in one nostril), time 4.00): 2.99 ng/mL | concentration at 6 h (other: intranasal (IN) spray, 3 mg, Mean, T1 (3 mg IN, one spray in one nostril), time 6.00): 2.06 ng/mL | concentration at 8 h (other: intranasal (IN) spray, 3 mg, Mean, T1 (3 mg IN, one spray in one nostril), time 8.00): 1.44 ng/mL | concentration at 12 h (other: intranasal (IN) spray, 3 mg, Mean, T1 (3 mg IN, one spray in one nostril), time 12.0): 0.992 ng/mL | concentration at 18 h (other: intranasal (IN) spray, 3 mg, Mean, T1 (3 mg IN, one spray in one nostril), time 18.0): 0.591 ng/mL | concentration at 24 h (other: intranasal (IN) spray, 3 mg, Mean, T1 (3 mg IN, one spray in one nostril), time 24.0): 0.412 ng/mL | concentration at 48 h (other: intranasal (IN) spray, 3 mg, Mean, T1 (3 mg IN, one spray in one nostril), time 48.0): 0.0942 ng/mL | concentration at 2.5 min (other: intranasal (IN) spray, 3 mg, Median, T1 (3 mg IN, one spray in one nostril), time 0.0416): 0.362 ng/mL | concentration at […] (other: intranasal (IN) spray, 3 mg, Median, T1 (3 mg IN, one spray in one nostril), time 0.0833): 1.29 ng/mL | concentration at […] (other: intranasal (IN) spray, 3 mg, Median, T1 (3 mg IN, one spray in one nostril), time 0.125): 3.65 ng/mL | concentration at […] (other: intranasal (IN) spray, 3 mg, Median, T1 (3 mg IN, one spray in one nostril), time 0.166): 6.28 ng/mL | concentration at […] (other: intranasal (IN) spray, 3 mg, Median, T1 (3 mg IN, one spray in one nostril), time 0.250): 8.04 ng/mL | concentration at […] (other: intranasal (IN) spray, 3 mg, Median, T1 (3 mg IN, one spray in one nostril), time 0.333): 8.07 ng/mL | concentration at […] (other: intranasal (IN) spray, 3 mg, Median, T1 (3 mg IN, one spray in one nostril), time 0.750): 5.85 ng/mL | concentration at 2 h (other: intranasal (IN) spray, 3 mg, Median, T1 (3 mg IN, one spray in one nostril), time 2.00): 4.62 ng/mL | concentration at 3 h (other: intranasal (IN) spray, 3 mg, Min, T1 (3 mg IN, one spray in one nostril), time 3.00): 2.16 ng/mL | concentration at 4 h (other: intranasal (IN) spray, 3 mg, Min, T1 (3 mg IN, one spray in one nostril), time 4.00): 1.97 ng/mL | concentration at 0 h (other: intranasal, 3 mg, Mean, T1 (3 mg IN, one spray in one nostril), time 0.00): 0 ng/mL | concentration at 2.5 min (other: intranasal, 3 mg, Mean, T1 (3 mg IN, one spray in one nostril), time 0.0416): 0.353 ng/mL | concentration at […] (other: intranasal, 3 mg, Mean, T1 (3 mg IN, one spray in one nostril), time 0.0833): 2.38 ng/mL | concentration at […] (other: intranasal, 3 mg, Mean, T1 (3 mg IN, one spray in one nostril), time 0.125): 5.1 ng/mL | concentration at […] (other: intranasal, 3 mg, Mean, T1 (3 mg IN, one spray in one nostril), time 0.166): 7.78 ng/mL | concentration at […] (other: intranasal, 3 mg, Mean, T1 (3 mg IN, one spray in one nostril), time 0.250): 9.17 ng/mL | concentration at […] (other: intranasal, 3 mg, Mean, T1 (3 mg IN, one spray in one nostril), time 0.333): 8.79 ng/mL | concentration at […] (other: intranasal, 3 mg, Mean, T1 (3 mg IN, one spray in one nostril), time 0.750): 5.99 ng/mL | concentration at 1 h (other: intranasal, 3 mg, Mean, T1 (3 mg IN, one spray in one nostril), time 1.00): 5.47 ng/mL | concentration at 2 h (other: intranasal, 3 mg, Mean, T1 (3 mg IN, one spray in one nostril), time 2.00): 4.99 ng/mL | concentration at 0 h (other: intranasal, 3 mg, Median, T1 (3 mg IN, one spray in one nostril), time 0.00): 0 ng/mL | concentration at 1 h (other: intranasal, 3 mg, Median, T1 (3 mg IN, one spray in one nostril), time 1.00): 5.11 ng/mL | concentration at 0 h (other: intranasal, 3 mg, Min, T1 (3 mg IN, one spray in one nostril), time 0.00): 0 ng/mL | concentration at 2.5 min (other: intranasal, 3 mg, Min, T1 (3 mg IN, one spray in one nostril), time 0.0416): 0 ng/mL | concentration at […] (other: intranasal, 3 mg, Min, T1 (3 mg IN, one spray in one nostril), time 0.0833): 0.319 ng/mL | concentration at […] (other: intranasal, 3 mg, Min, T1 (3 mg IN, one spray in one nostril), time 0.125): 0.642 ng/mL | concentration at […] (other: intranasal, 3 mg, Min, T1 (3 mg IN, one spray in one nostril), time 0.166): 1.09 ng/mL | concentration at […] (other: intranasal, 3 mg, Min, T1 (3 mg IN, one spray in one nostril), time 0.250): 1.88 ng/mL | concentration at […] (other: intranasal, 3 mg, Min, T1 (3 mg IN, one spray in one nostril), time 0.333): 1.97 ng/mL | concentration at […] (other: intranasal, 3 mg, Min, T1 (3 mg IN, one spray in one nostril), time 0.750): 2.52 ng/mL | concentration at 2 h (other: intranasal, 3 mg, Min, T1 (3 mg IN, one spray in one nostril), time 2.00): 3.28 ng/mL | concentration at 0 h (other: intranasal, 6 mg, individual subject, Time 0.00, T3: 6 mg nalmefene HCl IN, two 0.1 mL sprays in one nostril): 0 ng/mL

Source: patent US12290596B2, “Compositions and methods for the treatment of opioid overdose” (priority 2021, dated 2025)
